From US9408387B2, “Safening 6-amino-2-(substituted phenyl)-5-substituted-4-pyrimidinecarboxylate herbicide injury on cereal crops” (Dow AgroSciences LLC, priority 2009, dated 2016)

Columns and labels:
Type in all cases: in vivo
[1] = tested on: spring barley (Hordeum vulgare L; HORVS); test: Postemergence herbicidal safening in cereal crops, greenhouse, visual injury: spring barley; details: Hordeum vulgare, post-emergence, 480 h, 20-22 d, read-out: HORVS Ob (visual injury); for pest or weed control at 70 g/ha: herbicide alone 70 g/ha; for pest or weed control at 140 g/ha: herbicide alone 140 g/ha
Experimental: (§1) Evaluation of Postemergence Herbicidal Safening in Cereal Crops
(§2) Seeds of the desired test plant species were planted in Sun Gro MetroMix® 306 planting mixture, which typically has a pH of 6.0 to 6.8 and an organic matter content of about 30 percent, in plastic pots with a surface area of 103.2 square centimeters (cm^2). When required to ensure good germination and healthy plants, a fungicide treatment and/or other chemical or physical treatment was applied. The plants were grown for 7-36 days (d) in a greenhouse with an approximate 14-hour (h) photoperiod which was maintained at about 18° C. during the day and 17° C. during the night. Nutrients and water were added on a regular basis and supplemental lighting was provided with overhead metal halide 1000-Watt lamps as necessary. The plants were employed for testing when they reached the second or third true leaf stage.
(§3) Treatments consisted of the acids or esters of compounds 1-10 and cloquintocet-mexyl (CQC-M), fenchlorazole-ethyl, mefenpyr-diethyl alone and in combination. Weighed amounts of acid or methyl esters of the compounds of formula (I) were dissolved in a volume of 97:3 v/v acetone/dimethylsulfoxide (DMSO) to obtain concentrated solutions. […] The concentrated solutions of the test compound were diluted with the addition of an aqueous mixture containing acetone, water, isopropyl alcohol, DMSO, Agri-Dex crop oil concentrate, and Triton® X-77 surfactant in a 64.7:26.0:6.7:2.0:0.7:0.01 v/v ratio. Test compounds were diluted to the appropriate application rate with a dilution solution which was prepared by mixing the appropriate volume of 97:3 v/v acetone/DMSO and the appropriate volume of an aqueous mixture containing acetone, water, isopropyl alcohol, DMSO, Agri-Dex crop oil concentrate, and Triton® X-77 surfactant in a 64.7:26.0:6.7:2.0:0.7:0.01 v/v ratio. Compound requirements are based upon a 12 mL application volume at a rate of 187 liters per hectare (L/ha). The concentrated solutions of the safener were prepared following the same procedure. Weighed amounts of safener were dissolved in a volume of 97:3 v/v acetone/DMSO to obtain concentrated safener solutions.
(§4) Spray solutions of the herbicide safener and test compound mixtures were prepared by adding the concentrated solutions to the appropriate amount of dilution solution to form 12 mL spray solution with active ingredients in combinations.
(§5) Formulated compounds were applied to the plant material with an overhead Mandel track sprayer equipped with 8002E nozzles calibrated to deliver 187 L/ha over an application area of 0.503 square meters (m^2) at a spray height of 18 inches (43 centimeters (cm)) above average plant canopy. Control plants were sprayed in the same manner with the solvent blank.
(§6) The treated plants and control plants were placed in a greenhouse as described above and watered by sub-irrigation to prevent wash-off of the test compounds. After 20-22 d, the condition of the test plants as compared with that of the control plants was determined visually and scored on a scale of 0 to 100 percent where 0 corresponds to no injury and 100 corresponds to complete kill.
(§7) Colby's equation was used to determine the herbicidal effects expected from the mixtures (Colby, S. R. Calculation of the synergistic and antagonistic response of herbicide combinations. Weeds 1967, 15, 20-22.).
(§8) The following equation was used to calculate the expected activity of mixtures containing two active ingredients, A and B: Expected=A+B−(A×B/100)
(§9) A=observed efficacy of active ingredient A at the same concentration as used in the mixture.
(§10) B=observed efficacy of active ingredient B at the same concentration as used in the mixture.

[2] = tested on: kochia (Kochia scoparia L; KCHSC); test: Postemergence herbicidal activity, greenhouse, visual injury: kochia; details: 20-22 d
Experimental: as §1, §2, §3, §4, §5, §6, §7, §8, §9, §10

[3] = tested on: purple deadnettle (Lamium purpureum L; LAMPU); test: Postemergence herbicidal activity, greenhouse, visual injury: purple deadnettle; details: Lamium purpureum, post-emergence, 480 h, 20-22 d, read-out: LAMPU Ob (visual injury); for pest or weed control at 70 g/ha: herbicide alone 70 g/ha; for pest or weed control at 140 g/ha: herbicide alone 140 g/ha
Experimental: as §1, §2, §3, §4, §5, §6, §7, §8, §9, §10

[4] = tested on: corn poppy (Papaver rhoeas L; PAPRH); test: Postemergence herbicidal activity, greenhouse, visual injury: corn poppy; details: 20-22 d
Experimental: as §1, §2, §3, §4, §5, §6, §7, §8, §9, §10

[5] = tested on: spring wheat (Triticum aestivum L; TRZAS); test: Postemergence herbicidal safening in cereal crops, greenhouse, visual injury: spring wheat; details: Triticum aestivum, post-emergence, 480 h, 20-22 d, read-out: TRZAS Ob (visual injury); for pest or weed control at 70 g/ha: herbicide alone 70 g/ha; for pest or weed control at 140 g/ha: herbicide alone 140 g/ha
Experimental: as §1, §2, §3, §4, §5, §6, §7, §8, §9, §10

[6] = tested on: lamb's-quarters (Chenopodium album L; CHEAL); test: Postemergence herbicidal activity, greenhouse, visual injury: lamb's-quarters; details: herbicide alone 35 g ae/ha; 20-22 d
Experimental: as §1, §2, §3
Spray solutions of the herbicide safener and test compound mixtures were prepared by adding the concentrated solutions to the appropriate amount of dilution solution to form 12 mL spray solution with active ingredients in combinations. […]
as §6, with “kill. […]” for “kill.”

[7] = tested on: winter barley (Hordeum vulgare L; HORVW); test: Postemergence herbicidal safening in cereal crops, greenhouse, visual injury: winter barley; details: 20-22 d
Experimental: as §1, §2, §3, §4, §5, §6, §7, §8, §9, §10

[8] = tested on: winter wheat (Triticum aestivum L; TRZAW); test: Postemergence herbicidal safening in cereal crops, greenhouse, visual injury: winter wheat; details: 20-22 d
Experimental: as §1, §2, §3, §4, §5, §6, §7, §8, §9, §10

[9] = tested on: durum wheat (Triticum durum L; TRZDU); test: Postemergence herbicidal safening in cereal crops, greenhouse, visual injury: durum wheat; details: 20-22 d
Experimental: as §1, §2, §3, §4, §5, §6, §7, §8, §9, §10

GALAP = test: Postemergence herbicidal activity, greenhouse, visual injury: GALAP; details: 20-22 d
Experimental: as §1, §2, §3, §4, §5, §6, §7
(§11) The following equation was used to calculate the expected activity of mixtures containing two active ingredients, A and B: Expected=A+B−(A×B/100) […]

AMARE = test: Postemergence herbicidal activity, greenhouse, visual injury: AMARE; details: 20-22 d
Experimental: as §1, §2, §3, §4, §5, §6, §7, §11

## COc1c(N)nc(-c2ccc(C)cc2)nc1C(=O)O [Compound 6, 6-amino-2-p-tolyl-5-methoxypyrimidine-4-carboxylic acid]
[1]; herbicide alone 35 g ae/ha
  pest or weed control at 35 g/ha: 25%
[1]
  pest or weed control at 70 g/ha: 20%
  pest or weed control at 140 g/ha: 40%
[2]; herbicide alone 70 g/ha
  KCHSC Ob (visual injury): 60%
[2]; herbicide alone 140 g/ha
  KCHSC Ob (visual injury): 70%
[3]
  pest or weed control at 70 g/ha: 75%
  pest or weed control at 140 g/ha: 80%
[4]; herbicide alone 70 g/ha
  PAPRH Ob (visual injury): 97%
[4]; herbicide alone 140 g/ha
  PAPRH Ob (visual injury): 100%
[5]; herbicide alone 35 g ae/ha
  pest or weed control at 35 g/ha: 35%
[5]
  pest or weed control at 70 g/ha: 20%
  pest or weed control at 140 g/ha: 55%
[6]
  CHEAL Ob (visual injury): 83%

## COc1c(Cl)ccc(-c2nc(N)c(Cl)c(C(=O)O)n2)c1F [Compound 1, 6-amino-5-chloro-2-(4-chloro-2-fluoro-3-methoxyphenyl)pyrimidine-4-carboxylic acid]
[1]
  pest or weed control at 70 g/ha: 15%
  pest or weed control at 140 g/ha: 30%
[7]; herbicide alone 70 g/ha
  HORVW Ob (visual injury): 15%
[7]; herbicide alone 140 g/ha
  HORVW Ob (visual injury): 40%
[8]; herbicide alone 70 g/ha
  TRZAW Ob (visual injury): 35%
[8]; herbicide alone 140 g/ha
  TRZAW Ob (visual injury): 40%
[3]
  pest or weed control at 70 g/ha: 95%
  pest or weed control at 140 g/ha: 99%
[5]
  pest or weed control at 70 g/ha: 25%
  pest or weed control at 140 g/ha: 45%
[9]; herbicide alone 70 g/ha
  TRZDU Ob (visual injury): 15%
[9]; herbicide alone 140 g/ha
  TRZDU Ob (visual injury): 35%
GALAP; herbicide alone 70 g/ha
  GALAP Ob (visual injury): 95%
GALAP; herbicide alone 140 g/ha
  GALAP Ob (visual injury): 95%
AMARE; herbicide alone 70 g/ha
  AMARE Ob (visual injury): 100%
AMARE; herbicide alone 140 g/ha
  AMARE Ob (visual injury): 100%
